The assay deals with P388. As to the kind of experiment: Cytotoxicity against mouse P388 cells. The class given is functional. The conditions noted are these: read-out: ED50 (the source's name).

Converted amounts (≈) assume the structure as drawn.

The results in this text go back to ChEMBL document CHEMBL1149016, “Plant anticancer agents, XLII. Cytotoxic constituents from Wikstroemia elliptica” (1986).

As to `COc1cc(C[C@@H]2CO[C@@H](c3cc(OC)c(O)c(OC)c3)[C@@H]2CO)ccc1O` (racemic), the EC50 came out at 0.33 µg/mL (≈ 0.845 µM).

For the molecule `COc1cc(C[C@H]2CO[C@H](c3ccc(O)c(OC)c3)[C@H]2CO)ccc1O` (racemic) [LARICIRESINOL], the EC50 worked out at 0.38 µg/mL (≈ 1.05 µM).

With `COc1cc([C@H]2OC[C@H]3[C@@H]2CO[C@@H]3c2cc(OC)c(O)c(OC)c2)cc(OC)c1O` (racemic) [SYRINGARESINOL], the EC50 came to 0.56 µg/mL (≈ 1.34 µM).

For `COc1cc2cc(Oc3ccc4ccc(=O)oc4c3)c(=O)oc2cc1O` [DAPHNORETIN], the EC50 amounted to 3.4 µg/mL (≈ 9.65 µM).

Consider `O=c1ccc2ccc(O)cc2o1` [UMBELLIFERONE], for which the EC50 is 3.1 µg/mL (≈ 19.1 µM).
